Data on one compound can be found in paper PMC4984800, “A first in man, dose-finding study of the mTORC1/mTORC2 inhibitor OSI-027 in patients with advanced solid malignancies” (British Journal of Cancer, 2016).

The structures appear in SMILES notation.

One series concerns mTORC2. On the set-up: method as in Bhagwat et al, 2011; Falcon et al, 2011. As to conditions: ref Bhagwat et al, 2011, Falcon et al; cited from earlier work.
The test system of a further series is mTORC1. Also noted: method as in Bhagwat et al, 2011; Falcon et al, 2011. As to conditions: ref Bhagwat et al, 2011, Falcon et al; cited from earlier work.
For series [1] the following is noted: preclinical toxicology studies; cited from earlier work.
Another series has as its system pS6 in tumour biopsies. Put plainly: Paired tumour biopsies: pS6 immunohistochemistry. It counts as in vivo, human. The method, then:
(§1) Drug-mediated inhibition of the mTORC1 and mTORC2 signalling was evaluated through assessing modulation of phospho-4EBP1 and phospho-PRAS40 in PBMC, as well as phospho-4EBP1 and phospho-S6 in tumour biopsies. Blood aliquots were collected prior to start dosing and at prespecified time points during the first course of treatment. Fresh tumour biopsies were obtained from selected patients during the dose escalation stage and from all patients in the expansion cohorts, at baseline and during cycle 1.
(§2) Drug-mediated inhibition of mTORC1 and mTORC2 signalling by OSI-027 was assessed by measuring inhibition of their effectors p4EBP1 (Thr37/46) and pPRAS40 (Thr246), respectively, in PBMC. In addition, paired tumour biopsies at screening and during first month of therapy were used to study target modulation.
In 21 cases, pre- and postdose paired tumour biopsies were amenable for PD studies.

For another series, the system named is pPRAS40 (Thr246) in PBMC. Put plainly: Pharmacodynamics in PBMC: pPRAS40 (Thr246), mTORC2 effector. The series is classed as in vivo, human. The method, then:
as §1, §2

With `COc1cccc2cc(-c3nc([C@H]4CC[C@H](C(=O)O)CC4)n4ncnc(N)c34)[nH]c12` [OSI-027], the IC50 – broadly, the midpoint of a concentration-inhibition curve – in the series with mTORC2 is 0.065 µM; in the series with mTORC1, 0.022 µM. Besides, the preclinical toxicology findings result in series [1] was “signs of immunosuppression, renal function impairment, glucose metabolism abnormalities as well as potential for cardiac and ocular toxicities at high doses”. Moreover, the “average reduction in pS6 expression (IHC)” value in the series with pS6 in tumour biopsies (90 mg) was 28.6%. In the series with pS6 in tumour biopsies (120 mg), the “average reduction in pS6 (IHC)” value turned out to be 75.3%. Also, the “inhibition of pPRAS40 in PBMC” value with pPRAS40 (Thr246) in PBMC (4 h after dosing, doses over 30 mg, almost universal) is listed as “Over 50%”; in the series with pPRAS40 (Thr246) in PBMC (S1, 90 mg, during the 3 days on treatment), “Over 50%”. Moreover, in the series with pPRAS40 (Thr246) in PBMC (S1, 160 mg, during the 4-days off treatment, most patients), the “target inhibition (pPRAS40) in PBMC” value is “Over 50%”.
